What all share (assay): relative viability (nuclei count vs DMSO), 5 days (fraction); higher = more cells survive
Compound in the experiment “GW-2580 + Decitabine”: COC1=CC=C(C=C1)COC2=C(C=C(C=C2)CC3=CN=C(N=C3N)N)OC [GW-2580] + Nc1ncn([C@H]2C[C@H](O)[C@@H](CO)O2)c(=O)n1 [Decitabine] (partner 2 µM)
Summed up:
(§1)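 Lung cancer cell lines were pin-tool dosed in 1536-well plates on the day after seeding, with either a lone drug or a fixed anchor-drug dose plus five library-drug doses (not always all listed) in √10 steps. Nuclei were counted on 4× images after 5 days. Relative viability is the ratio of treated-well to vehicle-well nuclei counts, with each value a median of duplicate plates.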

Compound in the experiment “Fedratinib + Vorinostat”: Cc1cnc(Nc2ccc(OCCN3CCCC3)cc2)nc1Nc1cccc(S(=O)(=O)NC(C)(C)C)c1 [Fedratinib] + O=C(CCCCCCC(=O)Nc1ccccc1)NO [Vorinostat] (partner 1 µM)
A digest of the protocol:
as §1

Compound in the experiment “Fedratinib + Lapatinib”: Cc1cnc(Nc2ccc(OCCN3CCCC3)cc2)nc1Nc1cccc(S(=O)(=O)NC(C)(C)C)c1 [Fedratinib] + CS(=O)(=O)CCNCc1ccc(-c2ccc3ncnc(Nc4ccc(OCc5cccc(F)c5)c(Cl)c4)c3c2)o1 [Lapatinib] (partner 2 µM)
Summed up:
as §1

Compound in the experiment “GW-2580 + Vorinostat”: COC1=CC=C(C=C1)COC2=C(C=C(C=C2)CC3=CN=C(N=C3N)N)OC [GW-2580] + O=C(CCCCCCC(=O)Nc1ccccc1)NO [Vorinostat] (partner 1 µM)
A digest of the protocol:
as §1

Compound in the experiment “GW-2580 + Crizotinib”: COC1=CC=C(C=C1)COC2=C(C=C(C=C2)CC3=CN=C(N=C3N)N)OC [GW-2580] + C[C@@H](Oc1cc(-c2cnn(C3CCNCC3)c2)cnc1N)c1c(Cl)ccc(F)c1Cl [Crizotinib] (partner 1 µM)
A digest of the protocol:
as §1

Turning to UMC-11, the relative viability in the experiment with GW-2580 + Decitabine (first compound 0.08 µM) is 0.617; with GW-2580 + Decitabine (first compound 0.8 µM), 0.424; with GW-2580 + Decitabine (first compound 8 µM), 0.586; in the experiment with Fedratinib + Vorinostat (first compound 0.1 µM), 0.377; with Fedratinib + Vorinostat (first compound 0.3162 µM), 0.357; with Fedratinib + Vorinostat (first compound 1 µM), 0.241. Further, the relative viability in the experiment with Fedratinib + Lapatinib (first compound 0.1 µM) stood at 0.825; with Fedratinib + Lapatinib (first compound 0.3162 µM), 1.08; with Fedratinib + Lapatinib (first compound 1 µM) it was 0.284; in the experiment with GW-2580 + Vorinostat (first compound 0.08 µM), 0.384; with GW-2580 + Vorinostat (first compound 0.8 µM) it was 0.391; in the experiment with GW-2580 + Vorinostat (first compound 2.53 µM), 0.513. The relative viability with GW-2580 + Vorinostat (first compound 8 µM) is 0.413; with GW-2580 + Crizotinib (first compound 0.08 µM), 0.599; with GW-2580 + Crizotinib (first compound 0.8 µM), 0.614; with GW-2580 + Crizotinib (first compound 2.53 µM), 0.585; with GW-2580 + Crizotinib (first compound 8 µM) it was 0.601.

Values taken from the supplement of paper PMC10307832.
